In patent publication US11033539B2, “Compounds of formulas (VII), (VIII), (IX), (XI), (XII), (XIII), and (XIV) as muscarinic receptor 4(M4) antagonists for treating neurological diseases” (Neurocrine Biosciences, Inc., priority 2015, dated 2021):
pKi: −log10 of the molar value.

What follows are molecules tested against human M4 receptor (Homo sapiens (Human), UniProt P08173) (assay: Radioligand (tritiated N-methylscopolamine) binding assay, M4). Details: Ki against the M4 receptor; membranes from CHO cells expressing human M4; tritiated N-methylscopolamine 1.5 nM; read-out: Ki.
In short: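 Compounds were tested at twelve concentrations ranging from 10 μM to […] against 1.5 nM radioligand on CHO cell membranes expressing each subtype. Incubation lasts 90 min at 37 °C in HEPES-buffered saline with Mg2+ and EDTA, pH 7.4, and filtration then separates bound radioligand.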

Sequence of human M4 receptor (P08173 whole entry): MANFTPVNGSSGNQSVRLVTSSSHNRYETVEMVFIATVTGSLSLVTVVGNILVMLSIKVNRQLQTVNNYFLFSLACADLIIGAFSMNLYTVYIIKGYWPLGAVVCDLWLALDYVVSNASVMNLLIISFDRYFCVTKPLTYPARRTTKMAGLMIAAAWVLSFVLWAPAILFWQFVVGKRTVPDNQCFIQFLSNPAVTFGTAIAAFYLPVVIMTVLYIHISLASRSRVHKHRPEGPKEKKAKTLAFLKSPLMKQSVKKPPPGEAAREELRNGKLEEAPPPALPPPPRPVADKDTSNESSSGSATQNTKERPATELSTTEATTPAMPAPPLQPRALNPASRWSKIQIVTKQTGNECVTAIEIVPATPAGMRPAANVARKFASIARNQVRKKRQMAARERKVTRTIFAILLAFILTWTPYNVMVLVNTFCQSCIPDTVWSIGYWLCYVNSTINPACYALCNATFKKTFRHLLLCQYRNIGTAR

Row | Compound | pKi
1 | O=C(NC1CCN(c2ccc(F)cc2)CC1)OCCC1CCN(Cc2ccccc2)CC1 [12-6, 2-(1-benzylpiperidin-4-yl)ethyl N-[1-(4-fluorophenyl)piperidin-4-yl]carbamate] | 6.00 to 7.00
2 | O=C(OCCC1CCN(Cc2ccccc2)CC1)N1CCC(O)(c2ccccc2)CC1 [12-7, 2-(1-benzylpiperidin-4-yl)ethyl 4-hydroxy-4-phenylpiperidine-1-carboxylate] | 6.00 to 7.00
3 | O=C(OCCC1CCN(Cc2ccccc2)CC1)N1CCC(c2ccccc2)CC1 [12-8, 2-(1-benzylpiperidin-4-yl)ethyl 4-phenylpiperidine-1-carboxylate] | 6.00 to 7.00
4 | N#Cc1cc(F)cc(N2CCN(C(=O)OCCC3CCN(Cc4ccccc4)CC3)CC2)c1 [12-9, 2-(1-benzylpiperidin-4-yl)ethyl 4-(3-cyano-5-fluorophenyl)piperazine-1-carboxylate] | 6.00 to 7.00
5 | N#Cc1cc(N2CCN(C(=O)OCCC3CCN(Cc4ccccc4)CC3)CC2)ccc1F [12-10, 2-(1-benzylpiperidin-4-yl)ethyl 4-(3-cyano-4-fluorophenyl)piperazine-1-carboxylate] | 6.00 to 7.00
6 | O=C(NC1CCN(c2ccc(OC(F)(F)F)cc2)CC1)OCCC1CCN(Cc2ccccc2)CC1 [12-11, 2-(1-benzylpiperidin-4-yl)ethyl N-{1-[4-(trifluoromethoxy)phenyl]piperidin-4-yl}carbamate] | 7.00 to 8.00
7 | O=C(OCCC1CCN(Cc2ccccc2)CC1)N1CCN(c2cc(F)c(F)c(F)c2)CC1 [12-12, 2-(1-benzylpiperidin-4-yl)ethyl 4-(3,4,5-trifluorophenyl)piperazine-1-carboxylate] | 7.00 to 8.00

Other lines, results leading:

Row | pKi | Compound
8 | 6.00 to 7.00 | Cc1c(C(=O)NCCC2CCN(Cc3ccccc3)CC2)cnc2cc(-c3ccccc3)nn12 [17-2, N-[2-(1-benzylpiperidin-4-yl)ethyl]-7-methyl-2-phenylpyrazolo[1,5-a]pyrimidine-6-carboxamide]
9 | 7.00 to 8.00 | Cc1c(C(=O)NCCC2CCN(Cc3ccccc3)CC2)cnc2cc(-c3ccc(Cl)cc3)nn12 [17-4, N-[2-(1-benzylpiperidin-4-yl)ethyl]-2-(4-chlorophenyl)-7-methylpyrazolo[1,5-a]pyrimidine-6-carboxamide]
10 | 6.00 to 7.00 | Cc1c(C(=O)NCCC2CCN(Cc3ccccc3)CC2)cnc2cc(-c3cccs3)nn12 [17-7, N-[2-(1-benzylpiperidin-4-yl)ethyl]-7-methyl-2-(thiophen-2-yl)pyrazolo[1,5-a]pyrimidine-6-carboxamide]
11 | 7.00 to 8.00 | Cc1c(C(=O)NCCC2CCN(Cc3ccccc3)CC2)cnc2cc(-c3ccc(C(F)(F)F)cc3)nn12 [17-8, N-[2-(1-benzylpiperidin-4-yl)ethyl]-7-methyl-2-[4-(trifluoromethyl)phenyl]pyrazolo[1,5-a]pyrimidine-6-carboxamide]
12 | 6.00 to 7.00 | Cc1c(C(=O)NCCC2CCN(Cc3ccccc3)CC2)cnc2cc(-c3ccccn3)nn12 [18-2, N-[2-(1-benzylpiperidin-4-yl)ethyl]-7-methyl-2-(pyridin-2-yl)pyrazolo[1,5-a]pyrimidine-6-carboxamide]
13 | 6.00 to 7.00 | Cc1c(C(=O)NCCC2CCN(Cc3ccccc3)CC2)cnc2cc(-c3ccc(C#N)cc3)nn12 [18-3]
14 | 7.00 to 8.00 | Cc1c(C(=O)NCCC2CCN(Cc3ccccc3)CC2)cnc2cc(-c3cccc(F)c3)nn12 [18-6]
15 | 7.00 to 8.00 | Cc1c(C(=O)NCCC2CCN(Cc3ccccc3)CC2)cnc2cc(-c3cccc(F)c3F)nn12 [18-7]
16 | 7.00 to 8.00 | Cc1c(C(=O)NCCC2CCN(Cc3ccccc3)CC2)cnc2cc(-c3cccc(C#N)c3)nn12 [18-8]
17 | 7.00 to 8.00 | COc1ccccc1-c1cc2ncc(C(=O)NCCC3CCN(Cc4ccccc4)CC3)c(C)n2n1 [18-9]
18 | 7.00 to 8.00 | Cc1c(C(=O)NCCC2CCN(Cc3ccccc3)CC2)cnc2cc(-c3cc(F)ccc3F)nn12 [18-10]
19 | 7.00 to 8.00 | Cc1c(C(=O)NCCC2CCN(Cc3ccccc3)CC2)cnc2cc(-c3ccccc3C(F)(F)F)nn12 [18-11]
20 | 7.00 to 8.00 | Cc1c(C(=O)NCCC2CCN(Cc3ccccc3)CC2)cnc2cc(-c3ccc(C#N)c(F)c3)nn12 [18-12]
21 | 7.00 to 8.00 | Cc1c(C(=O)NCCC2CCN(Cc3ccccc3)CC2)cnc2cc(-c3ccc(OC(F)(F)F)cc3)nn12 [18-13]
